The record followed here is BindingDB's records for doi:10.1111/cbdd.12826 (Universidade De Lisboa, 2016).

Molecules are shown by their SMILES. pIC50: −log10 of the molar value. Structures can show the parent of a compound that is named as a salt.

DNA-(apurinic or apyrimidinic site) endonuclease, sequence (P27695 whole entry): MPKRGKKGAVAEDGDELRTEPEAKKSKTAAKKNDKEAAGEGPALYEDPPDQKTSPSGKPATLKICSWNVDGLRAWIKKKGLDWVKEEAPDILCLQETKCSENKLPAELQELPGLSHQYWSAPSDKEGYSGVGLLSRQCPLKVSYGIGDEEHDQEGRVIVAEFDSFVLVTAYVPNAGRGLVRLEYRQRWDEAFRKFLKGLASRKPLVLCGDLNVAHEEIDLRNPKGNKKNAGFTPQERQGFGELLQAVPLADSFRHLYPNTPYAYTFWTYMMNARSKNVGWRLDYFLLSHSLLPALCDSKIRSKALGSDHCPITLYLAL

In the assay the target is DNA-(apurinic or apyrimidinic site) endonuclease (Homo sapiens, UniProt P27695). Nature of the assay: Fluorescence-Based APE1 Endonuclease Activity Assay. The note with it: pH 7.5. The method, then:
In this assay, the complementary single-stranded oligonucleotides at […] were mixed at a 1:1 ratio and annealed in assay buffer (50 mm Tris pH 7.5, 25 mm NaCl, 2 mm MgCl2, 1 mm DTT, 0.01% Tween-20) at 95 °C for 5 min to generatethe double-stranded substrate of APE1.[A. Simeonov, A. Kulkarni, D. Dorjsuren, A. Jadhav, M. Shen, D. R. McNeill, C. P. Austin, D. M. Wilson 3rd, PLoS ONE 2009, 4, p. e5740.] After the annealing, the reaction mixture was allowed to cool to room temperature. The assay was carried out in 96-well black plates with flat bottom (Costar, Corning Inc., NY, USA) at a finalreaction volume of 100 μL. The reaction mixtures containing 2.5 U of human recombinant APE1 (6 μL) (New England Biolabs, Ipswich, MA, USA) were incubated in the assay buffer abovementioned, in the absence or presence of the putative APE1 inhibitors (5 μL), at room temperature for 15 min. The reaction was initiated by the addition of double-stranded substrate (6 μL) to obtain the final concentration of 250 nm. DMSO was maintained at a concentration of 0.5% (v/v) in all assays (negative control). Fluorescence readings were acquired at 1-min intervals over an incubation period of 30 min at 37 °C using a SpectraMax Gemini EM microplate plate reader (Molecular Devices, Berkshire, UK) in the kinetic mode at excitation wavelength 550 nm, emission wavelength 584 nm, and cutoff at 570 nm.
Turning to `Nc1ccc(/N=N/c2c(N)ccc3cc(S(=O)(=O)O)cc(O)c23)c(S(=O)(=O)O)c1` [6-amino-5-[(4-amino-2-sulfophenyl)azo]-4-hydroxy-2-naphtalenesulfonic acid disodium salt (Compound 41)], the negative logarithm of the IC50 (pIC50) (in general, the IC50 on a negative log10 scale, so that one unit is a factor of ten) was 5.05.
With `CC(=O)Nc1ccc(/C=C/c2ccc(N=C=S)c(S(=O)(=O)O)c2)c(S(=O)(=O)O)c1` [(5-(acetylamino)-2-[2-(4-isothiocyanato-3-sulfophenyl)ethenyl]benzenesulfonic acid disodium salt (Compound 22)], the pIC50 is 6.60.
The result for `Nc1ccc2cc(S(=O)(=O)O)cc(O)c2c1/N=N/c1ccc([N+](=O)[O-])cc1S(=O)(=O)O` [6-amino-4-hydroxy-5-[(4-nitro-2-sulfophenyl)azo]-2-naphtalenesulfonic acid disodium salt (Compound 37)] reads 5.11.
